The source of these data is US20240366775A1, “HUMAN TRANSFERRIN RECEPTOR BINDING ANTIBODY-PEPTIDE CONJUGATE” (PEPTIDREAM INC., priority 2021, published 2024).

Usually Kd stands for the equilibrium constant for the complex coming apart.

The target in data set [1] is human transferrin receptor (hTfR) (Homo sapiens, UniProt P02786). Nature of the data set: SPR measurement of peptide binding to hTfR. The settings on record: naked peptide (1st to 15th amino acids, without linker part) corresponding to the listed linker-attached peptide; read-out: SPR of naked peptide (KD for binding to hTfR). An excerpt:
Note that ND indicates No Data (here, it means that no data was obtained).
On the technique in general: SPR reads the build-up and loss of mass on a sensor chip optically.

Data set [2] in a line: ELISA no-target control wells (non-specific binding of antibodies and antibody-peptide conjugates). To be noted: sample at 100 nM, no target immobilized. The protocol: Random biotinylated PD-1 was added to IMMOBILIZER STREPTAVIDIN F96 clear (NUNC, Cat. No. 436014) at 1 μmol per one well and incubated at 4° C. overnight to perform solidification. The plate was washed with 900 μL of PBST in a plate washer (TECAN, HydroSpeed). 300 μL of 1% Block Ace (KAC Co., Ltd., Cat. No. UK-B80) was added per one well and incubated at room temperature for 90 minutes to perform blocking treatment. The plate was washed with 900 μL of PBST in the plate washer. […] The plate was washed with 900 μL of PBST in the plate washer. 50 μL of Goat Anti-Human IgG H&L (HRP) (Abcam, Cat. No. ab97165) diluted 50,000 times with PBST-0.1% Block Ace solution was added and incubated at room temperature for 45 min. The plate was washed with 900 μL of PBST in the plate washer. 50 μL of TMB Solution (Sara care, Cat. No. 5150-0077) at room temperature was added and color development was performed at room temperature for 10 min in dark place, then 50 μL of TMB Stop Solution (Sara care, Cat. No. 5150-0021) was added to stop the color development. The absorbance at 450 nm was measured in a plate reader (Enspir (trademark), Perkin Elmer).
(§1) Random biotinylated TfR was added to IMMOBILIZER STREPTAVIDIN F96 clear (NUNC, Cat. No. 436014) at 1 μmol per one well and incubated at 4° C. overnight to perform solidification. The plate was washed with 900 μL of PBST in a plate washer (TECAN, HydroSpeed). 300 μL of 1% Block Ace (KAC Co., Ltd., Cat. No. UK-B80) was added per one well and incubated at room temperature for 90 minutes to perform blocking treatment. The plate was washed with 900 μL of PBST in the plate washer. 50 μL of various antibody-peptide conjugate and antibody whose peptide is not modified diluted to a final concentration of 100 nM by 50 mM HEPES pH 7.8-0.1% Block Ace were added and incubated at room temperature for 60 min. The plate was washed with 900 μL of PBST in the plate washer. 50 μL of Goat Anti-Human IgG H&L (HRP) (Abcam, Cat. No. ab97165) diluted 50,000 times with PBST-0.1% Block Ace solution was added and incubated at room temperature for 45 min. The plate was washed with 900 μL of PBST in the plate washer. 50 μL of TMB Solution (Sara care, Cat. No. 5150-0077) at room temperature was added and color development was performed at room temperature for 10 min in dark place, then 50 μL of TMB Stop Solution (Sara care, Cat. No. 5150-0021) was added to stop the color development. The absorbance at 450 nm was measured in a plate reader (Enspir (trademark), Perkin Elmer).

The target in the next data set is T1, PD-L1 (Homo sapiens, UniProt Q9NZQ7).
T1 construct: purchased R&D SYSTEMS 9049-B7
T1 sequence (Q9NZQ7 19-290): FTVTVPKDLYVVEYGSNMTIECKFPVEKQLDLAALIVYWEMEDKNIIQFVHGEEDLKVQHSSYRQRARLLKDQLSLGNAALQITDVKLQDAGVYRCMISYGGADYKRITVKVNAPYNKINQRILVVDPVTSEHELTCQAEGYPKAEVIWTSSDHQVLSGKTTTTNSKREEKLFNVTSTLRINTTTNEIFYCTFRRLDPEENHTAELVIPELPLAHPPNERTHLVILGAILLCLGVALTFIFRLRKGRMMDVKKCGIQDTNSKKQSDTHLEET
Nature of the data set: ELISA bindability of atezolizumab-peptide conjugate to PD-L1. It counts as binding. To be noted: sample at 100 nM, average absorbance of two measurements. The protocol:
The bindability of atezolizumab-peptide conjugates to the antigen PD-L1 was measured by ELISA.
100 μg of PD-L1 (R&D SYSTEMS, Cat. No. 9049-B7) was dissolved in PBS (Nacalai Tesque, Inc., Cat. No. 27575-31) to a final concentration of 1 g/L. To the dissolved PD-L1, 5 equivalents of 10 mM NHS-PEG4-Biotin (Thermo Scientific, Cat. No. A39259) was added and incubated at 4° C. overnight to biotinylate PD-L1. To a column packed with 1 mL of Bio-Gel P-6 (Bio-Rad, Cat. No. 1504130), swollen with a solution of polyoxyethylene sorbitan monolaurate (Nacalai Tesque, Inc., Cat. No. 28353-85) added to PBS to a final concentration of 0.1% (PBST), 100 μL of the above solution was added per one column to remove unreacted NHS-PEG4-Biotin.
Random biotinylated PD-L1 was added to IMMOBILIZER STREPTAVIDIN F96 clear (NUNC, Cat. No. 436014) at 1 μmol per one well and incubated at 4° C. overnight to perform solidification. The plate was washed with 900 μL of PBST in a plate washer (TECAN, HydroSpeed). 300 μL of 1% Block Ace (KAC Co., Ltd., Cat. No. UK-B80) was added per one well and incubated at room temperature for 90 minutes to perform blocking treatment. The plate was washed with 900 μL of PBST in the plate washer. […] The absorbance at 450 nm was measured in a plate reader (Enspir (trademark), Perkin Elmer).

The target of another data set is T2, human TfR (Homo sapiens, UniProt P02786).
T2 construct: made in house
T2 sequence (P02786 whole entry): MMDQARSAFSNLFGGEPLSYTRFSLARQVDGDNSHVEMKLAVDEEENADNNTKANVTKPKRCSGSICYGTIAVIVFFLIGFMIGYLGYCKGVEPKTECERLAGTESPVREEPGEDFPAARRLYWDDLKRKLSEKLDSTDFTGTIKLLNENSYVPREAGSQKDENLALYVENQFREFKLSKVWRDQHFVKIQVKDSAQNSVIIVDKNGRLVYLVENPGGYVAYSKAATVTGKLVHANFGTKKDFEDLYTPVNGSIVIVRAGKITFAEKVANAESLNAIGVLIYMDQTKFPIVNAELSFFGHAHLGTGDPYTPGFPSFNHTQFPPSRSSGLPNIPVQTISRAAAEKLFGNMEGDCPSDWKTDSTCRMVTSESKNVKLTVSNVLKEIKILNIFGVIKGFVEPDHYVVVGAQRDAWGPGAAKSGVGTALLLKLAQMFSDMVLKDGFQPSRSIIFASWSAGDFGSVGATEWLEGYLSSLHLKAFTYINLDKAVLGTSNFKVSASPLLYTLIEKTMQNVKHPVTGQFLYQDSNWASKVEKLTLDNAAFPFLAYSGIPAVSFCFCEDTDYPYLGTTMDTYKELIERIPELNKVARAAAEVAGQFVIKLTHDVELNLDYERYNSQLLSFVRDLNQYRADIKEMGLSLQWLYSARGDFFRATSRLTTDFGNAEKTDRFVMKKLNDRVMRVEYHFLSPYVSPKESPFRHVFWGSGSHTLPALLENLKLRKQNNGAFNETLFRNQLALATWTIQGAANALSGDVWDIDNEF
Nature of the data set: ELISA bindability of various antibody-peptide conjugates to TfR. It counts as binding. To be noted: sample at 100 nM, average absorbance of two measurements. The procedure:
as §1

Data set [3] in a line: Test substance concentration in plasma, hTfR-KI mouse. It counts as in vivo, hTfR-KI mice. To be noted: Example 7-2, tail vein 5 mg/kg, 1, 3, 6 and 24 hours, FIG. 2-3.
Protocol: Blood was drawn from the tail vein after 1 and 3 hours from administration (2 mice/time point). After 6 and 24 hours from administration, mice were anesthetized with isoflurane, blood was drawn from the right ventricle, and then perfused with saline from the left ventricle for 4 to 5 min for blood removing treatment. Blood was collected using an EDTA-2K-treated needle and syringe, and the collected blood was kept on ice until it was separated into plasma.
To Strept Avidin plate (Meso Scale Diagnostics, LLC), 150 μL/well of Blocker Casein in PBS (Thermo Fisher Scientific, Inc.) was added and shaken (26° C., 500 rpm) for 60 min in a plate shaker (Biosan) to perform blocking treatment. The Blocker Casein in PBS was removed from the Strept Avidin plates, and 200 μL/well of PBST was added to each plate and washed. 25 μL/well of Capture antibody solution was added to each Strept Avidin plate, and the plates were shaken (26° C., 500 rpm) for 60 min in a plate shaker. Capture antibody solution was removed and PBST was added 200 μL/well and washed. This washing operation was performed three times. […] The concentration of each test substance in the samples were calculated by adding 150 μL/well of 2×Read Buffer T to each Strept Avidin plate and measuring with a plate reader (Sector S600, Meso Scale Diagnostics, LLC).
Data set [4] in a line: Test substance concentration in tissue (brain migration), hTfR-KI mouse. It counts as in vivo, hTfR-KI mice. The settings on record: Example 7-2, tail vein 5 mg/kg, 6 and 24 hours, heart, lung, liver, spleen, kidney, quadriceps muscle, FIG. 2-4.
Protocol: Blood was drawn from the tail vein after 1 and 3 hours from administration (2 mice/time point). After 6 and 24 hours from administration, mice were anesthetized with isoflurane, blood was drawn from the right ventricle, and then perfused with saline from the left ventricle for 4 to 5 min for blood removing treatment. Blood was collected using an EDTA-2K-treated needle and syringe, and the collected blood was kept on ice until it was separated into plasma. After blood removing treatment, brains were harvested and divided into left and right portions, and the left brain was embedded in a freeze-embedding agent (OCT compound, Sakura Finetek Co., Ltd.) for immunostaining and a frozen block was prepared. The right brain, heart, lung, liver, spleen, kidney, and quadriceps muscle were collected for measurement of test substance concentrations in tissues, weighed, flash-frozen in liquid nitrogen, and stored at −70° C. or less. […]
To Strept Avidin plate (Meso Scale Diagnostics, LLC), 150 μL/well of Blocker Casein in PBS (Thermo Fisher Scientific, Inc.) was added and shaken (26° C., 500 rpm) for 60 min in a plate shaker (Biosan) to perform blocking treatment. […] The concentration of each test substance in the samples were calculated by adding 150 μL/well of 2×Read Buffer T to each Strept Avidin plate and measuring with a plate reader (Sector S600, Meso Scale Diagnostics, LLC).

human transferrin receptor (hTfR), sequence (P02786 whole entry): as above

Regarding `CC[C@H](C)[C@@H]1NC(=O)[C@H](Cc2ccc(O)cc2)NC(=O)[C@H](Cc2ccc(O)cc2)NC(=O)[C@H](CC(N)=O)NC(=O)[C@H](Cc2c[nH]c3ccccc23)NC(=O)[C@H](C(C)C)NC(=O)[C@H](Cc2ccccc2)NC(=O)[C@H](C(C)C)NC(=O)[C@H](C)NC(=O)CSC[C@@H](C(=O)NCCOCCOCCOCCOCCOCCOCCOCCOCCOCCOCCOCCOCCOCCOCCOCCOCCOCCOCCOCCOCCOCCOCCOCCOCCOCCOCCOCCOCCOCCOCCOCCOCCOCCOCCOCCOCCC(=O)ON2C(=O)CCC2=O)NC(=O)[C@H](Cc2ccc(O)cc2)N(C)C(=O)[C@H](Cc2ccc(O)cc2)NC(=O)[C@H](CCCNC(=N)N)NC(=O)[C@H](CCCNC(=N)N)NC(=O)[C@H]([C@@H](C)CC)NC1=O` [JCR_hTfR_000894_PEG36_(NHS)], the Kd in data set [1] is < 1 nM.
Same read-out and setting: the value for `CC[C@H](C)[C@@H]1NC(=O)[C@H](Cc2ccc(O)cc2)NC(=O)[C@H](Cc2ccc(O)cc2)NC(=O)[C@H](CC(N)=O)NC(=O)[C@H](Cc2c[nH]c3ccccc23)NC(=O)[C@H](C(C)C)NC(=O)[C@H](Cc2ccccc2)NC(=O)[C@H](C(C)C)NC(=O)[C@H](C)NC(=O)CSC[C@@H](C(=O)NCCOCCOCCOCCOCCC(=O)NN)NC(=O)[C@H](Cc2ccc(O)cc2)N(C)C(=O)[C@H](Cc2ccc(O)cc2)NC(=O)[C@H](CCCNC(=N)N)NC(=O)[C@H](CCCNC(=N)N)NC(=O)[C@H]([C@@H](C)CC)NC1=O` [hTIR 000894_PEG4_(Hydrazide)] was < 1 nM; that for `CC[C@H](C)[C@@H]1NC(=O)[C@H](Cc2ccc(O)cc2)NC(=O)[C@H](Cc2ccc(O)cc2)NC(=O)[C@H](CC(N)=O)NC(=O)[C@H](Cc2c[nH]c3ccccc23)NC(=O)[C@H](C(C)C)NC(=O)[C@H](Cc2ccccc2)NC(=O)[C@H](C(C)C)NC(=O)[C@H](C)NC(=O)CSC[C@@H](C(=O)NCCOCCOCCOCCOCCOCCOCCOCCOCCOCCOCCOCCOCCOCCOCCOCCOCCOCCOCCOCCOCCOCCOCCOCCOCCOCCOCCOCCOCCOCCOCCOCCOCCOCCOCCOCCOCCC(=O)NN)NC(=O)[C@H](Cc2ccc(O)cc2)N(C)C(=O)[C@H](Cc2ccc(O)cc2)NC(=O)[C@H](CCCNC(=N)N)NC(=O)[C@H](CCCNC(=N)N)NC(=O)[C@H]([C@@H](C)CC)NC1=O` [hTIR_000894_PEG36_(Hydrazine)] was < 1 nM; that for `CC[C@H](C)[C@@H]1NC(=O)[C@H](Cc2ccc(O)cc2)NC(=O)[C@H](Cc2ccc(O)cc2)NC(=O)[C@H](CC(N)=O)NC(=O)[C@H](Cc2c[nH]c3ccccc23)NC(=O)[C@H](C(C)C)NC(=O)[C@H](Cc2ccccc2)NC(=O)[C@H](C(C)C)NC(=O)[C@H](C)NC(=O)CSC[C@@H](C(=O)NCC(=O)N[C@@H](CCC(=O)O)C(=O)NCC(=O)N[C@@H](CCC(=O)O)C(=O)NCCOCCOCCOCCOCCOCCOCCOCCOCCOCCOCCOCCOCCC(=O)NN)NC(=O)[C@H](Cc2ccc(O)cc2)N(C)C(=O)[C@H](Cc2ccc(O)cc2)NC(=O)[C@H](CCCNC(=N)N)NC(=O)[C@H](CCCNC(=N)N)NC(=O)[C@H]([C@@H](C)CC)NC1=O` [hTfR_894_(GEGE)PEG12_Hydrazide] was < 1 nM.
On the same count and under the same terms, the value for `CC[C@H](C)[C@@H]1NC(=O)[C@H](Cc2ccc(O)cc2)NC(=O)[C@H](Cc2ccc(O)cc2)NC(=O)[C@H](CC(N)=O)NC(=O)[C@H](Cc2c[nH]c3ccccc23)NC(=O)[C@H](C(C)C)NC(=O)[C@H](Cc2ccccc2)NC(=O)[C@H](C(C)C)NC(=O)[C@H](C)NC(=O)CSC[C@@H](C(=O)NCCOCCOCCOCCOCCOCCOCCOCCOCCOCCOCCOCCOCCC(=O)NN)NC(=O)[C@H](Cc2ccc(O)cc2)N(C)C(=O)[C@H](Cc2ccc(O)cc2)NC(=O)[C@H](CCCNC(=N)N)NC(=O)[C@H](CCCNC(=N)N)NC(=O)[C@](C)([C@@H](C)CC)NC1=O` [hTfR_000894_PEG11_(Hydrazine)] was < 1 nM; that for `CC[C@H](C)[C@@H]1NC(=O)[C@H](Cc2ccc(O)cc2)NC(=O)[C@H](Cc2ccc(O)cc2)NC(=O)[C@H](CC(N)=O)NC(=O)[C@H](Cc2c[nH]c3ccccc23)NC(=O)[C@H](C(C)C)NC(=O)[C@H](Cc2ccccc2)NC(=O)[C@H](C(C)C)NC(=O)[C@H](C)NC(=O)CSC[C@@H](C(=O)NCCOCCOCCOCCOCCOCCOCCOCCOCCOCCOCCOCCOCCC(=O)N[C@@H](CCCCNC(=O)C2CCC(CN3C(=O)C=CC3=O)CC2)C(N)=O)NC(=O)[C@H](Cc2ccc(O)cc2)N(C)C(=O)[C@H](Cc2ccc(O)cc2)NC(=O)[C@H](CCCNC(=N)N)NC(=O)[C@H](CCCNC(=N)N)NC(=O)[C@H]([C@@H](C)CC)NC1=O` (some centres unmarked) [hTfR_000894_PEG11_K (Maleimide)] was < 1 nM.
atezolizumab: the “Abs450 nm at 100 nM, No-target” value in data set [2] is recorded as 0.043. In addition, in the data set with PD-L1, the “Abs450 nm at 100 nM, Target PD-L1” value turned out to be 2.237. Further, in the data set with human TfR, the “Abs450 nm at 100 nM, Target hTfR” value is on record as 0.0465.
For ipilimumab, the “Abs450 nm at 100 nM, No-target” value in data set [2] came to 0.044.
With nivolumab [Nivolumab (control)], the “concentration in plasma, time course” value in data set [3] is “detected in plasma at all time points evaluated and showed biphasic changes in plasma concentrations”. In addition, the detection in tissues result in data set [4] is “detected in all tissues”.
For pembrolizumab, in data set [2], the “Abs450 nm at 100 nM, No-target” value is listed as 0.0415.
On the same count and under the same terms, the value for pertuzumab was 0.0455.
